Assay results: patent US8552220B2, “Therapeutic agent for Alzheimer's disease” (Tokyo Institute of Technology, priority 2008, dated 2013)

| melting point [°C] | Structure (SMILES) |
| --- | --- |
| 175 to 180 | COc1cc(O)ccc1/C=C/C(=O)CC(=O)/C=C/c1cc(OCc2ccccc2)ccc1-c1ccccc1 [CU559, (1E,6E)-1-(4-benzyloxybiphenyl-2-yl)-7-(4-hydroxy-2-methoxyphenyl)hepta-1,6-diene-3,5-dione] |
| 92 to 98 | COc1cc(O)ccc1/C=C/C(=O)CC(=O)/C=C/c1cc(O)ccc1Br [CU561, (1E,6E)-1-(2-bromo-5-hydroxyphenyl)-7-(4-hydroxy-2-methoxyphenyl)hepta-1,6-diene-3,5-dione] |
| 178 to 183 | O=C(/C=C/c1ccc2cc[nH]c2c1)CC(=O)/C=C/c1cc(OCc2ccccc2)ccc1-c1ccccc1 [CU566, (1E,6E)-1-(4-benzyloxybiphenyl-2-yl)-7-(1H-indol-6-yl)hepta-1,6-diene-3,5-dione] |
| 176 to 180 | COc1cc(O)ccc1/C=C/C(=O)CC(=O)/C=C/c1ccccc1C(F)(F)F [CU574, (1E,6E)-1-(4-hydroxy-2-methoxyphenyl)-7-(2-trifluoromethylphenyl)hepta-1,6-diene-3,5-dione] |
| 187 to 192 | COc1cc(O)ccc1/C=C/C(=O)CC(=O)/C=C/c1ccc(N(C)C)cc1Cl [CU581, (1E,6E)-1-(2-chloro-4-dimethylaminophenyl)-7-(4-hydroxy-2-methoxyphenyl)hepta-1,6-diene-3,5-dione] |
| 108 to 114 | COc1cc(O)ccc1/C=C/C(=O)CC(=O)/C=C/c1cc(O)ccc1-c1ccccc1 [CU582, (1E,6E)-1-(4-hydroxybiphenyl-2-yl)-7-(4-hydroxy-2-methoxyphenyl)hepta-1,6-diene-3,5-dione] |
| 119 to 123 | COc1cc(O)ccc1/C=C/C(=O)CC(=O)/C=C/c1cc(O)ccc1[N+](=O)[O-] [CU585, (1E,6E)-1-(4-hydroxy-2-methoxyphenyl)-7-(5-hydroxy-2-nitrophenyl)hepta-1,6-diene-3,5-dione] |
| 181 to 186 | O=C(/C=C/c1ccc2cc[nH]c2c1)CC(=O)/C=C/c1cc(OCc2ccccc2)ccc1[N+](=O)[O-] [CU588, (1E,6E)-1-(5-benzyloxy-2-nitrophenyl)-7-(1H-indol-6-yl)hepta-1,6-diene-3,5-dione] |
| 183 to 186 | COc1cc(O)ccc1/C=C/C(=O)CC(=O)/C=C/c1cc(OCc2ccccc2)ccc1[N+](=O)[O-] [CU594, (1E,6E)-1-(5-benzyloxy-2-nitrophenyl)-7-(4-hydroxy-2-methoxyphenyl)hepta-1,6-diene-3,5-dione] |
| 204 to 207 | O=C(/C=C/c1ccc2cc[nH]c2c1)CC(=O)/C=C/c1cc(O)ccc1[N+](=O)[O-] [CU596, (1E,6E)-1-(5-hydroxy-2-nitrophenyl)-7-(1H-indol-6-yl)hepta-1,6-diene-3,5-dione] |
| 206 to 211 | COc1cc(O)ccc1/C=C/C(=O)CC(=O)/C=C/c1ccc(O)cc1Cl [CU600, (1E,6E)-1-(2-chloro-4-hydroxyphenyl)-7-(4-hydroxy-2-methoxyphenyl)hepta-1,6-diene-3,5-dione] |
| 223 to 226 | COc1cc(O)ccc1/C=C/C(=O)CC(=O)/C=C/c1ccc(N(C)C)cc1[N+](=O)[O-] [CU603, (1E,6E)-1-(4-dimethylamino-2-nitrophenyl)-7-(4-hydroxy-2-methoxyphenyl)hepta-1,6-diene-3,5-dione] |
| 90 to 96 | COc1ccc(O)cc1/C=C/C(=O)CC(=O)/C=C/c1cc(O)ccc1Br [CU608, (1E,6E)-1-(2-bromo-5-hydroxyphenyl)-7-(5-hydroxy-2-methoxyphenyl)hepta-1,6-diene-3,5-dione] |
| 132 to 136 | O=C(/C=C/c1ccc(O)cc1Cl)CC(=O)/C=C/c1cc(O)ccc1[N+](=O)[O-] [CU611, (1E,6E)-1-(2-chloro-4-hydroxyphenyl)-7-(5-hydroxy-2-nitrophenyl)hepta-1,6-diene-3,5-dione] |
| 101 to 104 | O=C(/C=C/c1cc(O)ccc1Br)CC(=O)/C=C/c1cc(O)ccc1-c1ccccc1 [CU616, (1E,6E)-1-(2-bromo-5-hydroxyphenyl)-7-(4-hydroxybiphenyl-2-yl)hepta-1,6-diene-3,5-dione] |
| 111 to 115 | CCOc1ccccc1-c1ccc(O)cc1/C=C/C(=O)CC(=O)/C=C/c1ccc(O)cc1 [CU643, (1E,6E)-1-(2′-ethoxy-4-hydroxybiphenyl-2-yl)-7-(4-hydroxyphenyl)hepta-1,6-diene-3,5-dione] |

The next lines start with the molecule.

| Structure (SMILES) | melting point [°C] |
| --- | --- |
| CN(C)c1ccc(/C=C/C(=O)CC(=O)/C=C/c2ccc(O)cc2)c(C(F)(F)F)c1 [CU555, (1E,6E)-1-(4-dimethylamino-2-trifluoromethylphenyl)-7-(4-hydroxyphenyl)hepta-1,6-diene-3,5-dione] | 195 to 199 |
| CN(C)c1ccc(/C=C/C(=O)CC(=O)CCc2ccc(O)cc2)c(C(F)(F)F)c1 [CU556, (E)-1-(4-dimethylamino-2-trifluoromethylphenyl)-7-(4-hydroxyphenyl)hept-1-ene-3,5-dione] | 110 to 114 |
| O=C(/C=C/c1ccc2cc[nH]c2c1)CC(=O)/C=C/c1cc(O)ccc1Br [CU562, (1E,6E)-1-(2-bromo-5-hydroxyphenyl)-7-(1H-indol-6-yl)hepta-1,6-diene-3,5-dione] | 196 to 200 |
| CN(C)c1ccc(/C=C/C(=O)CC(=O)/C=C/c2ccc3cc[nH]c3c2)c(Cl)c1 [CU584, (1E,6E)-1-(2-chloro-4-dimethylaminophenyl)-7-(1H-indol-6-yl)hepta-1,6-diene-3,5-dione] | 180 to 185 |
| CN(C)c1ccc(/C=C/C(=O)CC(=O)/C=C/c2ccc3cc[nH]c3c2)c([N+](=O)[O-])c1 [CU592, (1E,6E)-1-(4-dimethylamino-2-nitrophenyl)-7-(1H-indol-6-yl)hepta-1,6-diene-3,5-dione] | 196 to 201 |
| O=C(/C=C/c1ccc2cc[nH]c2c1)CC(=O)/C=C/c1ccc(O)cc1Cl [CU601, (1E,6E)-1-(2-chloro-4-hydroxyphenyl)-7-(1H-indol-6-yl)hepta-1,6-diene-3,5-dione] | 182 to 186 |
| O=C(/C=C/c1ccc2cc[nH]c2c1)CC(=O)/C=C/c1cc(O)ccc1-c1ccccc1 [CU604, (1E,6E)-1-(4-hydroxybiphenyl-2-yl)-7-(1H-indol-6-yl)hepta-1,6-diene-3,5-dione] | 185 to 191 |
| CN(C)c1ccc(/C=C/C(=O)CC(=O)/C=C/c2cc(O)ccc2Br)c(Cl)c1 [CU609, (1E,6E)-1-(2-bromo-5-hydroxyphenyl)-7-(2-chloro-4-dimethylaminophenyl)hepta-1,6-diene-3,5-dione] | 209 to 214 |
| O=C(/C=C/c1cc(O)ccc1Br)CC(=O)/C=C/c1cc(O)ccc1Br [CU614, (1E,6E)-1,7-bis(2-bromo-5-hydroxyphenyl)hepta-1,6-diene-3,5-dione] | 239 to 243 |
| O=C(/C=C/c1cc(O)ccc1Br)CC(=O)/C=C/c1ccccc1C(F)(F)F [CU615, (1E,6E)-1-(2-bromo-5-hydroxyphenyl)-7-(2-trifluoromethylphenyl)hepta-1,6-diene-3,5-dione] | 66 to 70 |
| O=C(/C=C/c1ccc(O)cc1)CC(=O)/C=C/c1cc(O)ccc1F [CU621, (1E,6E)-1-(2-fluoro-5-hydroxyphenyl)-7-(4-hydroxyphenyl)hepta-1,6-diene-3,5-dione] | 205 to 209 |
| O=C(/C=C/c1ccc(O)cc1)CC(=O)/C=C/c1ccccc1F [CU622, (1E,6E)-1-(2-fluorophenyl)-7-(4-hydroxyphenyl)hepta-1,6-diene-3,5-dione] | 146 to 150 |
| O=C(/C=C/c1ccc(O)cc1)CC(=O)/C=C/c1ccccc1-n1cncn1 [CU623, (1E,6E)-1-[2-(1H-1,2,4-triazol-1-yl)phenyl]-7-(4-hydroxyphenyl)hepta-1,6-diene-3,5-dione] | 186 to 192 |
| O=C(/C=C/c1ccc(O)cc1)CC(=O)/C=C/c1ccccc1Cl [CU624, (1E,6E)-1-(2-chlorophenyl)-7-(4-hydroxyphenyl)hepta-1,6-diene-3,5-dione] | 158 to 161 |
| CCOC(=O)c1cn(-c2ccccc2/C=C/C(=O)CC(=O)/C=C/c2ccc(O)cc2)nn1 [CU625, (1E,6E)-1-[2-(4-ethoxycarbonyl-1H-1,2,3-triazol-1-yl)phenyl]-7-(4-hydroxyphenyl)hepta-1,6-diene-3,5-dione] | 231 to 237 |
| CCOC(=O)c1cnnn1-c1ccccc1/C=C/C(=O)CC(=O)/C=C/c1ccc(O)cc1 [CU626, (1E,6E)-1-[2-(5-ethoxycarbonyl-1H-1,2,3-triazol-1-yl)phenyl]-7-(4-hydroxyphenyl)hepta-1,6-diene-3,5-dione] | 93 to 96 |
| O=C(/C=C/c1ccc(O)cc1)CC(=O)/C=C/c1cc(F)ccc1-c1ccccc1 [CU640, (1E,6E)-1-(4-fluorobiphenyl-2-yl)-7-(4-hydroxyphenyl)hepta-1,6-diene-3,5-dione] | 187 to 191 |
| O=C(/C=C/c1ccc(O)cc1)CC(=O)/C=C/c1cc(Cl)ccc1-c1ccccc1 [CU641, (1E,6E)-1-(4-chlorobiphenyl-2-yl)-7-(4-hydroxyphenyl)hepta-1,6-diene-3,5-dione] | 193 to 196 |
| Cc1ccccc1-c1ccc(O)cc1/C=C/C(=O)CC(=O)/C=C/c1ccc(O)cc1 [CU642, (1E,6E)-1-(4-hydroxy-2′-methylbiphenyl-2-yl)-7-(4-hydroxyphenyl)hepta-1,6-diene-3,5-dione] | 173 to 177 |
| O=C(/C=C/c1ccc(O)cc1)CC(=O)/C=C/c1ccccc1-c1cn(Cc2ccccc2)nn1 [CU644, (1E,6E)-1-[2-(1-benzyl-1H-1,2,3-triazol-4-yl)phenyl]-7-(4-hydroxyphenyl)hepta-1,6-diene-3,5-dione] | 103 to 109 |
| O=C(/C=C/c1ccc(O)cc1)CC(=O)/C=C/c1ccccc1-c1cnnn1Cc1ccccc1 [CU645, (1E,6E)-1-[2-(1-benzyl-1H-1,2,3-triazol-5-yl)phenyl]-7-(4-hydroxyphenyl)hepta-1,6-diene-3,5-dione] | 205 to 215 |
| CCOC(=O)Cn1cc(-c2ccccc2/C=C/C(=O)CC(=O)/C=C/c2ccc(O)cc2)nn1 [CU646, (1E,6E)-1-[2-(1-ethoxycarbonylmethyl-1H-1,2,3-triazol-4-yl)phenyl]-7-(4-hydroxyphenyl)hepta-1,6-diene-3,5-dione] | 99 to 105 |
